Assay results from patent publication US20240174648A1, “Small Molecule Compound” (Technoderma Medicines Pte Ltd, priority 2019, published 2024).

Key:
JAK1 = JAK1 (Homo sapiens, UniProt P23458); test: JAK kinase inhibition assay (EZ Reader, peptide substrate phosphorylation) - JAK1; assay type: biochemical; conditions: JAK1 kinase 20 nM; 8 concentration points, max 10 μM
Description: (§1) Assay for Identifying Inhibitory Effects of Compounds on JAK Kinases
(§2) Janus kinases (JAK), including JAK1, JAK2, JAK3 and Tyk2, transduce a cytokine-mediated signal through a JAK-STAT pathway. The kinases are 120-140 kDa in size and have 7 determined homology regions: JH1 to JH7. JH1 is an important region for enzymatic activity and has typical characteristics of tyrosine kinases. Phosphorylation of tyrosine leads to a change in the conformation of JAK protein, thereby promoting binding of substrate. The JAK-STAT system includes three main parts: receptors penetrating a cell membrane, Janus kinases binding to the receptors, and signal transducers and activators of transcription (STAT) for transmitting signals to a nucleus and DNA. When cytokines bind to receptors, JAK phosphorylates the receptors and attracts STAT proteins. The STAT proteins are also phosphorylated and combined with one another to form dimers. The dimers enter the nucleus and bind to DNA, thereby leading to gene transcription.
(§3) EZ Reader from PerkinElmer can be used to detect the phosphorylation of polypeptide substrates catalyzed by kinases. The device is based on microfluidic techniques, and can directly detect fluorescently labeled substrates and products. The separation step is achieved by controlling the pressure and electric field strength in the microfluidic chip. In kinase assays, a product conversion ratio is usually controlled to be 20-30%. A biological test is used to identify inhibitory effects of compounds on JAKs.
(§4) Compound powder was dissolved in DMSO, sealed and stored in a freezer under −20° C. The in-house compound Ref1 was used as a positive control for JAK1, JAK2 and Tyk2 tests, and Ref2 was used as a positive control for JAK3 tests.
(§5) S2.8. Assay buffer: 20 mM HEPES buffer, pH 7.4, 10 mM magnesium chloride, 0.01% bovine serum albumin BSA, 0.0005% Tween-20 and 1 mM dithiothreitol solution.
(§6) S2.9. Stop buffer: 180 mM HEPES buffer, 20 mM ethylenediaminetetraacetic acid and 0.2% coating reagent 3.
(§7) S2.10. Separation buffer: 100 mM HEPES buffer, 10 mM ethylenediaminetetraacetic acid, 0.0005% Tween 20, 0.1% coating reagent 3 and 1% dimethyl sulfoxide.
(§8) The compound was dissolved in dimethyl sulfoxide and diluted to 10 mM concentration, a certain volume of solution was taken and diluted to 0.6 mM concentration, 10 μL of the 0.6 mM dilution was added to a 384-well microplate, and then was diluted 3-fold with a total of 8 concentration points.
(§9) Positive control (HPE1): Ref1, final concentration: 10 μM […]
(§10) Negative control (ZPE): DMSO, final content: 1.6%
(§11) Compounds: maximum final concentration: 10 μM; 3-fold dilution, 8 concentration points and 2 duplicates.
(§12) S4.1. 250 nL of the compound was added to each well of the assay microplate by using ECHO, and centrifuged at 1000 rpm for 1 minute.
(§13) S4.2. 5 μL of the assay buffer was added and agitated for a few seconds to fully dissolve the compound.
(§14) S4.3. 5 μL of 3× substrate solution and 5 μL of 3× kinase solution were added and centrifuged at 800 rpm for 1 minute.
(§15) S4.4. Final concentrations of JAK1, JAK2, JAK3 and Tyk2 kinases in the reaction system were 20 nM, 1 nM, 1 nM and 1 nM respectively.
(§16) S4.5. Incubation at room temperature, where kinases had time differences, and different batches of kinases had time differences.
(§17) S4.6. When 20%-30% of the reaction completed, 15 μL of stop buffer was added to stop the reaction, and centrifuged at 1000 rpm for 2 minutes.
(§18) S4.7. The microplates were placed on EZ Reader for reading.
(§19) S4.8. Readings on EZ Reader were calculated by using a peak height, where product conversion ratio (%)=product/(product+substrate)*100.
(§20) 5. Data Processing: IC50 calculation
(§21) A graphing software Xlfit was used to form a concentration curve of the test compound, and an IC50 value was calculated.
(§22) “A” means “≥10 μM”; “B” means “≥1 μM and <10 μM”; “C” means “≥0.1 μM and <1 μM”; and “D” means “<0.1 μM”.

Tyk2 = Tyk2 (Homo sapiens, UniProt P29597); test: JAK kinase inhibition assay (EZ Reader, peptide substrate phosphorylation) - Tyk2; assay type: biochemical; conditions: Tyk2 kinase 1 nM; 8 concentration points, max 10 μM
Description: as §1, §2, §3, §4, §5, §6, §7, §8, §9, §10, §11, §12, §13, §14, §15, §16, §17, §18, §19, §20, §21, §22

Sequence of Tyk2 (P29597 whole entry): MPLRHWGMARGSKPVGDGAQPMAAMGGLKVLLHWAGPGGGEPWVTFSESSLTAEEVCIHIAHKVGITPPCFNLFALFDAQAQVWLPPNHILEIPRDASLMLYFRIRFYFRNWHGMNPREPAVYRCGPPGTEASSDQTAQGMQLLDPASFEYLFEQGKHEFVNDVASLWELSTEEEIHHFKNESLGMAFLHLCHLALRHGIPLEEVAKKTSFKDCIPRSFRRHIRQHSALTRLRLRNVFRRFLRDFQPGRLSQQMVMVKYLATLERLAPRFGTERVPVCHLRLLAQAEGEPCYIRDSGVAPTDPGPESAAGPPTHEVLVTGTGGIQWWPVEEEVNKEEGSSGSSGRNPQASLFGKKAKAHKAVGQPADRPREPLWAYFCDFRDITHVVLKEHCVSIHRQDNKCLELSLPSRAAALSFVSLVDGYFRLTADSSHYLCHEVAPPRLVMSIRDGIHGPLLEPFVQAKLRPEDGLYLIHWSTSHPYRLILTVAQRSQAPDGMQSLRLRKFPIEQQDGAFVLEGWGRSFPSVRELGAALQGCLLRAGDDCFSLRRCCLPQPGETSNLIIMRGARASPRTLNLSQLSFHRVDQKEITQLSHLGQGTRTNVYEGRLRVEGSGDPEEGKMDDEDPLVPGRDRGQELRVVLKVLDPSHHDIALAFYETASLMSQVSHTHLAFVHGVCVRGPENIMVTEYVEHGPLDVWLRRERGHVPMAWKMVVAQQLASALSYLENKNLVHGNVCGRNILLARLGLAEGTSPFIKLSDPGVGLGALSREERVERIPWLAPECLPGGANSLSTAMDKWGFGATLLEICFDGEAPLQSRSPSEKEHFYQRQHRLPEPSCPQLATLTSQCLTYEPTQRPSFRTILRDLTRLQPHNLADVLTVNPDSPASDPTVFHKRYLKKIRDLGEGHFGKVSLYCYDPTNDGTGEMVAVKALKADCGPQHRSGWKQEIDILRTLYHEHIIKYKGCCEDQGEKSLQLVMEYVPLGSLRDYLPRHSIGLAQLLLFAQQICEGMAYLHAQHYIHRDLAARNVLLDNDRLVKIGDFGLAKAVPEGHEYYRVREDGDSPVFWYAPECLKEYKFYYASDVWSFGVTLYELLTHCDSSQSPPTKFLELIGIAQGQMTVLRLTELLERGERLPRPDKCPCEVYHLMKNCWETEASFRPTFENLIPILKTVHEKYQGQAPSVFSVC
Sequence of JAK1 (P23458 whole entry): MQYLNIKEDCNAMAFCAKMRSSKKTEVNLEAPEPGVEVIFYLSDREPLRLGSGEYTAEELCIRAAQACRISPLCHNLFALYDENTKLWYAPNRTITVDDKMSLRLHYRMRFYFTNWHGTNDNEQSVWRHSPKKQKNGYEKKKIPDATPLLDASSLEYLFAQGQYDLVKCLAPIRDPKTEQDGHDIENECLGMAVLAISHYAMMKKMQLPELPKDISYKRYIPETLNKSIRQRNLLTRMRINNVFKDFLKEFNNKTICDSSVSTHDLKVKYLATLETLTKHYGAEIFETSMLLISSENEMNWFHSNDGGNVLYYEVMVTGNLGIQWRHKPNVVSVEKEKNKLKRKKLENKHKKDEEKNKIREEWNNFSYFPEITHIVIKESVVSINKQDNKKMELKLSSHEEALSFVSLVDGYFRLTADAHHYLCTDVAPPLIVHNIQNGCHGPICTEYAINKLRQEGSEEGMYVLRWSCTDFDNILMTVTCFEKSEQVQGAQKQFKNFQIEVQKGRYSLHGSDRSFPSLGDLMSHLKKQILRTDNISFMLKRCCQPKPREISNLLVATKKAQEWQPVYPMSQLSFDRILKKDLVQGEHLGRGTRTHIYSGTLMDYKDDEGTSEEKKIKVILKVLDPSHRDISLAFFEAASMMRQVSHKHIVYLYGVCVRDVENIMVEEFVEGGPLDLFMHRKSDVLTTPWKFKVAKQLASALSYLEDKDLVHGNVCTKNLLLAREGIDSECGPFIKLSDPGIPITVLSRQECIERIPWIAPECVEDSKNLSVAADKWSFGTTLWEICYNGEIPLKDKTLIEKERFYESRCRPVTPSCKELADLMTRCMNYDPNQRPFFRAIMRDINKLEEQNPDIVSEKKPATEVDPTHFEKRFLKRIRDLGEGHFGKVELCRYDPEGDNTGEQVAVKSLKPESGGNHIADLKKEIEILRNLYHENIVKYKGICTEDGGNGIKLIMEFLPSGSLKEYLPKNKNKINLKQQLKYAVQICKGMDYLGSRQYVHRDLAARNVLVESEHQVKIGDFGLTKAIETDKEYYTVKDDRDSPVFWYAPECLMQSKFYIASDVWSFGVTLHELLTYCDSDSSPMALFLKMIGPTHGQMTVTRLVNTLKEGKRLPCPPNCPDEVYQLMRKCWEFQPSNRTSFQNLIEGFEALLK

SMILES: Cn1cc(Nc2nccc(-c3ccnc(NC(=O)C4CC4)c3)n2)cn1 [TDM-180773, N-(4-(2-((1-methyl-1H-pyrazol-4-yl)amino)pyrimidin-4-yl)-pyridin-2-yl)cyclopropanemethane]
- IC50 (JAK1): ≥ 10 µM
- IC50 (Tyk2): ≥ 10 µM

SMILES: Cn1cc(Nc2nccc(-c3ccnc(NC(=O)CC#N)c3)n2)cn1 [TDM-180774, 2-cyano-N-(4-(2-((1-methyl-1H-pyrazol-4-yl)amino)pyrimidin-4-yl)pyridin-2-yl)acetamide]
- IC50 (JAK1): ≥ 10 µM
- IC50 (Tyk2): ≥ 10 µM

SMILES: COCC(=O)Nc1cc(-c2ccnc(Nc3cnn(C)c3)n2)ccn1 [TDM-180777, 2-methoxy-N-(4-(2-((1-methyl-1H-pyrazol-4-yl)amino)pyrimidin-4-yl)pyridin-2-yl)acetamide]
- IC50 (JAK1): ≥ 10 µM
- IC50 (Tyk2): ≥ 10 µM

SMILES: Cc1cc(-c2ccnc(Nc3cnn(C)c3)n2)ccc1C(=O)NCC#N [TDM-180779, N-(cyanomethyl)-2-methyl-4-(2-((1-methyl-1H-pyrazol-4-yl)amino)pyrimidin-4-yl)benzamide]
- IC50 (JAK1): 1 to 10 µM
- IC50 (Tyk2): 1 to 10 µM

SMILES: Cn1cc(Nc2nccc(-c3ccc(C(=O)NC4CC4(F)F)nc3)n2)cn1 (centres unmarked) [TDM-180781, N-(2,2-difluorocyclopropyl)-5-(2-((1-methyl-1H-pyrazol-4-yl)amino)pyrimidin-4-yl)pyridinecarboxamide]
- IC50 (JAK1): 1 to 10 µM
- IC50 (Tyk2): 1 to 10 µM

SMILES: Cc1cc(-c2ccnc(Nc3cnn(C)c3)n2)ccc1-n1nccc1C1CC1 [TDM-180782, 4-(4-(5-cyclopropyl-1H-pyrazol-1-yl)-3-methylphenyl)-N-(1-methyl-1H-pyrazol-4-yl)pyrimidin-2-amine]
- IC50 (JAK1): ≥ 10 µM
- IC50 (Tyk2): 1 to 10 µM

SMILES: Cc1cc(-c2ccnc(Nc3cnn(C)c3)n2)ccc1NC(=O)CC(F)(F)F [TDM-180783, 3,3,3-trifluoro-N-(2-methyl-4-(2-((1-methyl-1H-pyrazol-4-yl)amino)pyrimidin-4-yl)phenyl)propanamide]
- IC50 (JAK1): 0.1 to 1 µM
- IC50 (Tyk2): 1 to 10 µM

SMILES: Cc1cc(-c2ccnc(Nc3cnn(C)c3)n2)ccc1C(=O)NCC#N [TDM-180784, N-(cyanomethyl)-2-methyl-4-(2-((1-methyl-1H-pyrazol-4-yl)amino)pyrimidin-4-yl)benzamide]
- IC50 (JAK1): 0.1 to 1 µM

SMILES: Cn1cc(Nc2nccc(-c3ccc(CN4CCOCC4)cc3)n2)cn1 [TDM-180787, N-(1-methyl-1H-pyrazol-4-yl)-4-(4-(morpholinomethyl)phenyl)pyrimidine-2-amine]
- IC50 (JAK1): 1 to 10 µM
- IC50 (Tyk2): 1 to 10 µM

SMILES: CN1CCN(Cc2ccc(-c3ccnc(Nc4cnn(C)c4)n3)cc2)CC1 [TDM-180788, N-(1-methyl-1H-pyrazol-4-yl)-4-(4-((4-methylpiperazine-1-yl)methyl)phenyl)pyrimidin-2-amine]
- IC50 (JAK1): 1 to 10 µM
- IC50 (Tyk2): 1 to 10 µM

SMILES: CC(=O)N1CCN(Cc2ccc(-c3ccnc(Nc4cnn(C)c4)n3)cc2)CC1 [TDM-180789, 1-(4-(4-(2-((1-methyl-1H-pyrazol-4-yl)amino)pyrimidin-4-yl)benzyl)piperazin-1-yl)ethan-1-one]
- IC50 (JAK1): ≥ 10 µM
- IC50 (Tyk2): 1 to 10 µM

SMILES: Cn1cc(Nc2nccc(-c3ccnc(NC(=O)CC(F)(F)F)c3)n2)cn1 [TDM-180790, 3,3,3-trifluoro-N-(4-(2-((1-methyl-1H-pyrazol-4-yl)amino)pyrimidin-4-yl)pyridin-2-yl)propanamide]
- IC50 (JAK1): ≥ 10 µM
- IC50 (Tyk2): ≥ 10 µM

SMILES: Cn1cc(Nc2nccc(-c3ccc(NC(=O)CO)cc3)n2)cn1 [TDM-180791, 2-hydroxy-N-(4-(2-((1-methyl-1H-pyrazol-4-yl)amino)pyrimidin-4-yl)phenyl)acetamide]
- IC50 (JAK1): 0.1 to 1 µM
- IC50 (Tyk2): 1 to 10 µM

SMILES: Cn1cc(Nc2nccc(-c3ccnc(NC(=O)C4CC4(F)F)c3)n2)cn1 (centres unmarked) [TDM-180792, 2,2-difluoro-N-(4-(2-((1-methyl-1H-pyrazol-4-yl)amino)pyrimidin-4-yl)pyridin-2-yl)cyclopropane-1-carboxamide]
- IC50 (JAK1): ≥ 10 µM
- IC50 (Tyk2): ≥ 10 µM

SMILES: COCCC(=O)Nc1ccc(-c2ccnc(Nc3cnn(C)c3)n2)cc1 [TDM-180799, 3-methoxy-N-(4-(2-((1-methyl-1H-pyrazol-4-yl)amino)pyrimidin-4-yl)phenyl)propanamide]
- IC50 (JAK1): 0.1 to 1 µM
- IC50 (Tyk2): 1 to 10 µM

SMILES: Cn1cc(Nc2nccc(-c3ccc(NC(=O)CO)nc3)n2)cn1 [TDM-180806, 2-hydroxy-N-(5-(2-((1-methyl-1H-pyrazol-4-yl)amino)pyrimidin-4-yl)pyridin-2-yl)acetamide]
- IC50 (JAK1): 1 to 10 µM
- IC50 (Tyk2): 1 to 10 µM

SMILES: Cn1cc(Nc2nccc(-c3ccc(C(=O)NC4CC4)nc3)n2)cn1 [TDM-180826, N-cyclopropyl-5-(2-((1-methyl-1H-pyrazol-4-yl)amino)pyrimidin-4-yl)pyridinecarboxamide]
- IC50 (JAK1): 1 to 10 µM
- IC50 (Tyk2): 1 to 10 µM

SMILES: CCS(=O)(=O)Nc1ccc(-c2ccnc(Nc3cnn(C)c3)n2)cn1 [TDM-180829, N-(5-(2-((1-methyl-1H-pyrazol-4-yl)amino)pyrimidin-4-yl)pyridin-2-yl)ethanesulfonamide]
- IC50 (JAK1): 1 to 10 µM
- IC50 (Tyk2): 1 to 10 µM

SMILES: COCC(=O)Nc1ccc(-c2ccnc(Nc3cnn(C)c3)n2)cn1 [TDM-180831, 2-methoxy-N-(5-(2-((1-methyl-1H-pyrazol-4-yl)amino)pyrimidin-4-yl)pyridin-2-yl)acetamide]
- IC50 (JAK1): 1 to 10 µM
- IC50 (Tyk2): ≥ 10 µM

SMILES: Cn1cc(Nc2nccc(-c3ccc(C(=O)NC4CC4)cc3)n2)cn1 [TDM-180852, N-cyclopropyl-4-(2-((1-methyl-1H-pyrazol-4-yl)amino)pyrimidin-4-yl)benzamide]
- IC50 (JAK1): 1 to 10 µM
- IC50 (Tyk2): 1 to 10 µM

SMILES: Cn1cc(Nc2nccc(-c3ccc(NC(=O)C4(C)CC4)nc3)n2)cn1 [TDM-180853, 1-methyl-N-(5-(2-((1-methyl-1H-pyrazol-4-yl)amino)pyrimidin-4-yl)pyridin-2-yl)cyclopropane-1-carboxamide]
- IC50 (JAK1): 1 to 10 µM
- IC50 (Tyk2): 1 to 10 µM

SMILES: Cn1cc(Nc2nccc(-c3ccc(NC(=O)CC#N)c4[nH]ccc34)n2)cn1 [TDM-180867, 2-cyano-N-(4-(2-((1-methyl-1H-pyrazol-4-yl)amino)pyrimidin-4-yl)-1H-indol-7-yl)acetamide]
- IC50 (JAK1): 0.1 to 1 µM
- IC50 (Tyk2): 0.1 to 1 µM

SMILES: Cn1cc(Nc2nccc(-c3ccc(NC(=O)C4CC4(F)F)c4[nH]ccc34)n2)cn1 (centres unmarked) [TDM-180868, 2,2-difluoro-N-(4-(2-((1-methyl-1H-pyrazol-4-yl)amino)pyrimidin-4-yl)-1H-indol-7-yl)cyclopropane-1-carboxamide]
- IC50 (JAK1): < 0.1 µM
- IC50 (Tyk2): < 0.1 µM

SMILES: Cn1cc(Nc2nccc(-c3ccc(NC(=O)C4CC4)c4[nH]ccc34)n2)cn1 [TDM-180869, N-(4-(2-((1-methyl-1H-pyrazol-4-yl)amino)pyrimidin-4-yl)-1H-indol-7-yl)cyclopropanecarboxamide]
- IC50 (JAK1): 0.1 to 1 µM
- IC50 (Tyk2): 0.1 to 1 µM

SMILES: Cn1cc(Nc2nccc(-c3ccc(NC(=O)CC(F)(F)F)c4[nH]ccc34)n2)cn1 [TDM-180870, 3,3,3-trifluoro-N-(4-(2-((1-methyl-1H-pyrazol-4-yl)amino)pyrimidin-4-yl)-1H-indol-7-yl)propanamide]
- IC50 (JAK1): < 0.1 µM
- IC50 (Tyk2): 0.1 to 1 µM

SMILES: Cn1cc(Nc2nccc(-c3ccc(NS(=O)(=O)C4CCOCC4)nc3)n2)cn1 [TDM-180875, N-(5-(2-((1-methyl-1H-pyrazol-4-yl)amino)pyrimidin-4-yl)pyridin-2-yl)tetrahydro-2H-pyran-4-sulfonamide]
- IC50 (JAK1): 0.1 to 1 µM
- IC50 (Tyk2): 1 to 10 µM

SMILES: Cn1cc(Nc2nccc(-n3ccc4c(NC(=O)C5CC5)cccc43)n2)cn1 [TDM-180876, N-(1-(2-((1-methyl-1H-pyrazol-4-yl)amino)pyrimidin-4-yl)-1H-indole-4-yl)cyclopropanemethane]
- IC50 (JAK1): < 0.1 µM
- IC50 (Tyk2): 0.1 to 1 µM
